This test has as its system subcutaneous transplanted tumors (CT26, LL/2, A375, MNK-45, SK-OV-3). As to the kind of experiment: Inhibition of growth of subcutaneous transplanted tumors in tumor-bearing mouse model. It counts as in vivo. Particulars: 10 mg/kg. The text has this: Embodiment 4: Test of Anti-Tumor Effect (i.e., The Inhibition Effect on the Growth of Subcutaneous Transplanted Tumors in Animals) of the Anti-Tumor Compound Drug with a Tumor-Bearing Mouse Model
BALB/c ordinary mice and C57/BL6 ordinary mice, male, 18-20 g in weight, 7-8 weeks old, SPF grade, purchased from Shanghai SLAC Laboratory Animal Co., Ltd. [Laboratory Animal Quality Certificate Number: SCXK (Shanghai) 2007-0005].
Mice are given intravenous injections, and one dose group is set: cGAMP, 10 mg/kg; compound anti-tumor drug, 10 mg/kg
Positive control: cGAMP, 10 mg/kg in dose
Administration route: administration by intraperitoneal injection
Administration volume: 100 μl/animal
Number of times of administration: continuous administration for 21 days, once every day
Number of animals in each group: 10
Mouse colorectal cancer cell line CT26, mouse Lewis lung cancer cell line LL/2, human ovarian cancer cell line SK-OV-3, human melanoma cell line A375, and human gastric cancer cell line MNK-45, which are all purchased from the Cell Bank of the Chinese Academy of Sciences.
The administration is continued for 21 days. 21 days later, the mice are killed and the tumors are weighed. Tumor inhibition rate=[1−mean tumor weight of experimental group/mean tumor weight of group A)]×100%.
Data is expressed with x±s, and processed with SPSS10.0 software. […]

Each structure is given as a SMILES string.

With `Nc1nc2c(ncn2[C@@H]2O[C@@H]3COP(=O)(O)O[C@H]4[C@@H](O)[C@H](n5cnc6c(N)ncnc65)O[C@@H]4COP(=O)(O)O[C@@H]2[C@@H]3O)c(=O)[nH]1` [cGAMP, Cyclic [G(2′,5′)pA(3′,5′)p]], the growth of tumors result (once every day for 21 days, subcutaneous transplanted tumor models in mice) is listed as “obviously inhibit the growth of tumors”. Besides, the “weights of tumors vs negative control group” value (after administration for 21 days, P<0.05, P<0.01) is “significantly lower than those of the negative control group”.

The values are drawn from patent US20210023115A1, “COMPOSITION OF ANTI-TUMOR COMPOUND DRUG AND APPLICATION THEREOF IN FIGHTING TUMORS” (HANGZHOU XINGAO BIOTECHNOLOGY CO. LTD, priority 2018, published 2021).
